Experimental data: patent publication US10392412B2, “Platinum anticancer agents” (THE REGENTS OF THE UNIVERSITY OF CALIFORNIA, priority 2015, dated 2019)

What was measured:
[1] = tested on: 786-0 cells; conditions: 786-0, Renal
Excerpt: (§1) The methods that were used by the DTP were described on the DTP website: (https://dtp.nci.nih.gov/discovery_development/nci-60/methodology.htm).

[2] = tested on: A549/ATCC cells; conditions: Non-Small Cell Lung
Excerpt: as §1

[3] = tested on: ACHN cells; conditions: Renal
Excerpt: as §1

[4] = tested on: BT-549 cells; conditions: BT-549, Breast
Excerpt: as §1

[5] = tested on: CCRF-CEM cells; conditions: Leukemia
Excerpt: as §1

[6] = tested on: DU-145 cells; conditions: DU-145, Prostate
Excerpt: as §1

[7] = tested on: HCC-2998 cells; conditions: HCC-2998, Colon
Excerpt: as §1

[8] = tested on: HCT-116 cells; conditions: HCT-116, Colon
Excerpt: as §1

[9] = tested on: HCT-15 cells; conditions: HCT-15, Colon
Excerpt: as §1

[10] = tested on: HOP-62 cells; conditions: HOP-62, Non-Small Cell Lung
Excerpt: as §1

[11] = tested on: HOP-92 cells; conditions: HOP-92, Non-Small Cell Lung
Excerpt: as §1

[12] = tested on: HS 578T cells; conditions: Breast
Excerpt: as §1

[13] = tested on: HT29 cells; conditions: HT29, Colon
Excerpt: as §1

[14] = tested on: KM12 cells; conditions: KM12, Colon
Excerpt: as §1

[15] = tested on: LOX IMVI cells; conditions: Melanoma
Excerpt: as §1

[16] = tested on: M14 cells; conditions: M14, Melanoma
Excerpt: as §1

[17] = tested on: MALME-3M cells; conditions: Melanoma
Excerpt: as §1

[18] = tested on: MDA-MB-231/ATCC cells; conditions: Breast
Excerpt: as §1

[19] = tested on: MDA-MB-435 cells; conditions: MDA-MB-435, Melanoma
Excerpt: as §1

[20] = tested on: MDA-MB-468 cells; conditions: MDA-MB-468, Breast
Excerpt: as §1

[21] = tested on: MOLT-4 cells; conditions: MOLT-4, Leukemia
Excerpt: as §1

[22] = tested on: NCI-ADR-RES cells; conditions: Ovarian
Excerpt: as §1

[23] = tested on: NCI-H226 cells; conditions: NCI-H226, Non-Small Cell Lung
Excerpt: as §1

[24] = tested on: NCI-H23 cells; conditions: NCI-H23, Non-Small Cell Lung
Excerpt: as §1

[25] = tested on: NCI-H460 cells; conditions: NCI-H460, Non-Small Cell Lung
Excerpt: as §1

[26] = tested on: NCI-H522 cells; conditions: NCI-H522, Non-Small Cell Lung
Excerpt: as §1

[27] = tested on: OVCAR-3 cells; conditions: OVCAR-3, Ovarian
Excerpt: as §1

[28] = tested on: OVCAR-5 cells; conditions: OVCAR-5, Ovarian
Excerpt: as §1

[29] = tested on: OVCAR-8 cells; conditions: OVCAR-8, Ovarian
Excerpt: as §1

[30] = tested on: PC-3 cells; conditions: PC-3, Prostate
Excerpt: as §1

[31] = tested on: RPMI-8226 cells; conditions: RPMI-8226, Leukemia
Excerpt: as §1

[32] = tested on: RXF 393 cells; conditions: RXF 393, Renal
Excerpt: as §1

[33] = tested on: SF-268 cells; conditions: SF-268, Central Nervous System
Excerpt: as §1

[34] = tested on: SF-295 cells; conditions: SF-295, Central Nervous System
Excerpt: as §1

[35] = tested on: SF-539 cells; conditions: SF-539, Central Nervous System
Excerpt: as §1

[36] = tested on: SK-MEL-2 cells; conditions: SK-MEL-2, Melanoma
Excerpt: as §1

[37] = tested on: SK-MEL-28 cells; conditions: SK-MEL-28, Melanoma
Excerpt: as §1

[38] = tested on: SK-MEL-5 cells; conditions: SK-MEL-5, Melanoma
Excerpt: as §1

[39] = tested on: SK-OV-3 cells; conditions: SK-OV-3, Ovarian
Excerpt: as §1

[40] = tested on: SN12C cells; conditions: Renal
Excerpt: as §1

[41] = tested on: SNB-19 cells; conditions: SNB-19, Central Nervous System
Excerpt: as §1

[42] = tested on: SR cells; conditions: Leukemia
Excerpt: as §1

[43] = tested on: SW-620 cells; conditions: SW-620, Colon
Excerpt: as §1

[44] = tested on: T-47D cells; conditions: Breast
Excerpt: as §1

[45] = tested on: U251 cells; conditions: U251, Central Nervous System
Excerpt: as §1

[46] = tested on: UACC-62 cells; conditions: UACC-62, Melanoma
Excerpt: as §1

[47] = tested on: UO-31 cells; conditions: UO-31, Renal
Excerpt: as §1

[48] = tested on: HL-60(TB) cells; conditions: Leukemia

Substance: [Pt(DMSO)methotrexate(Cl)] [SM-69]
- Log10GI50 [1]: −5.46 M
- Log10GI50 [2]: −5.30 M
- Log10GI50 [3]: −5.12 M
- Log10GI50 [4]: −4.00 M
- Log10GI50 [5]: −5.39 M
- Log10GI50 [6]: −5.18 M
- Log10GI50 [7]: −4.95 M
- Log10GI50 [8]: −5.50 M
- Log10GI50 [9]: −5.04 M
- Log10GI50 [10]: −4.26 M
- Log10GI50 [11]: −4.00 M
- Log10GI50 [12]: −4.00 M
- Log10GI50 [13]: −5.25 M
- Log10GI50 [14]: −5.17 M
- Log10GI50 [15]: −5.77 M
- Log10GI50 [16]: −5.41 M
- Log10GI50 [17]: −4.71 M
- Log10GI50 [18]: −4.00 M
- Log10GI50 [19]: −5.36 M
- Log10GI50 [20]: −5.08 M
- Log10GI50 [21]: −5.30 M
- Log10GI50 [22]: −5.20 M
- Log10GI50 [23]: −4.61 M
- Log10GI50 [24]: −4.45 M
- Log10GI50 [25]: −5.34 M
- Log10GI50 [26]: −4.74 M
- Log10GI50 [27]: −4.15 M
- Log10GI50 [28]: −4.61 M
- Log10GI50 [29]: −5.36 M
- Log10GI50 [30]: −5.35 M
- Log10GI50 [31]: −4.94 M
- Log10GI50 [32]: −4.63 M
- Log10GI50 [33]: −5.04 M
- Log10GI50 [34]: −5.46 M
- Log10GI50 [35]: −5.19 M
- Log10GI50 [36]: −4.00 M
- Log10GI50 [37]: −4.00 M
- Log10GI50 [38]: −4.12 M
- Log10GI50 [39]: −4.00 M
- Log10GI50 [40]: −5.29 M
- Log10GI50 [41]: −4.00 M
- Log10GI50 [42]: −5.52 M
- Log10GI50 [43]: −5.48 M
- Log10GI50 [44]: −4.08 M
- Log10GI50 [45]: −5.43 M
- Log10GI50 [46]: −4.90 M
- Log10GI50 [47]: −4.92 M
- Log10GI50 [48]: −5.46 M
